Results reported in patent publication US20050233403A1, “Human adipocyte cell populations and methods for identifying modulators of same” (AdipoGenix, Inc., priority 2002, published 2005).
Read-outs that look alike come from different tables or passages of the source.

Tests used:
[1] = system: 3T3-L1 cells; test: Fluorescent fatty acid uptake by 3T3-L1 cells, 96-well format; assay type: cell-based; conditions: for Uptake by 3T3-L1 cells, Day 9 / Uptake by 3T3-L1 cells, Day 0: 10 μM dye, one hour, means ± SEM; for Uptake by 3T3-L1 cells, Day 9: cells 9 days in differentiation medium; for Uptake by 3T3-L1 cells, Day 0: cells not incubated in differentiation medium; for Fatty acid uptake, Fluor. Units: dye 120 minutes
Description: To establish a rapid, 96 well format, automated assay of fatty acid uptake, the reproducibility and signal-to-noise ratios of four different fatty acid-fluorescent dye conjugates in undifferentiated and differentiated preadipocytes was determined. 3T3-L1 cells were used to compare the fluorescent dyes, the best of which was then selected for the human preadipocyte system. The fluorescent fatty acids tested were
These fatty acid-dye conjugates were chosen because their final size is close to that of physiologically relevant C:18 fatty acids, the most abundant in human fat cells and in the diet (Kokatnur, M., et al.(1979) Am. J. Clin. Nutr. 32:2198-205; Llado, I., et al. (1996) Biochem. Mol. Biol. Int. 40:295-303)). Furthermore, these dyes are vital, allowing the cells to be re-used in additional assays. 3T3-L1 cells were seeded in the wells of a 96-well plate at a density of 3.3×10^3 cells/cm^2 (1×10^3 cells/well). After reaching confluence, cells were exposed to differentiation medium for 0 and 9 days. The wells were washed with assay buffer (150 mM […], 10 mM NaPO4; 3 mM KCl; 10 μM CaCl2; 1 mM MgCl2; 25 mM glucose; pH 7.4) containing 20 μM fatty acid-free BSA, pre-warmed to 37° C. The fluorescent fatty acids were added in assay buffer to a final concentration of 10 μM, and incubated at 37° C. for one hour. Wells were washed with assay buffer containing 0.1% BSA.
Table 15 indicates the results of experiments in which 3T3-L1 cells were exposed to a differentiation inducing medium from day 0. Fatty acid uptake was assayed by exposing cells to BODPY for 120 minutes at each of the times represented.

[2] = system: 3T3-L1 cells; test: as above; assay type: cell-based; conditions: for BODIPY uptake, Day 0 / BODIPY uptake, Day 8: 10 μM
[3] = system: human preadipocytes; test: Fatty acid uptake by human preadipocytes exposed to differentiation medium (fatty acid-based cellulomic assay); assay type: cell-based; conditions: 10 d, relative to control medium, means of 4 studies
Description: The following example describes the optimization of methods used to differentiate human preadipocytes. The example details a thorough analyses of known and potential agents and conditions for promoting human preadipocyte differentiation. Experiments were performed with abdominal subcutaneous as well as mesenteric and omental preadipocytes. A variety of conditions were tested using the fatty acid-based cellulomic assay described in Example 4. Optimization of differentiation conditions enhances the usefulness of human preadipocytes in screening for modulators (e.g., inhibitors) of obesity.
(§1) The fatty acid uptake ratio was expressed as a function of fatty acid uptake in control medium. % Diff. represents the proportion of cells that developed doubly refractile lipid droplets visible by phase contrast microscopy by observers unaware of culture conditions. Means of 4 studies are shown. CoV was also determined (not shown) to monitor assay reliability.

[4] = system: human preadipocytes; test: Extent of differentiation: % cells with doubly refractile lipid droplets by phase contrast microscopy; assay type: cell-based; conditions: 10 d
Description: as §1

[5] = system: differentiating adipocytes
Description: The assay features differentiated human preadipocytes, but the procedure can be modified in a number of ways to discover novel compounds affecting the adipocytes of human and other species (i.e., rodent). For example, the day of compound addition during preadipocyte differentiation process can be changed as well as the incubation period. Similarly, the day of FA* addition, its type of fluorescent label and chain length, and its concentration and incubation time can be modified. • B. Up to five cell strains of frozen primary human subcutaneous preadipocytes (e.g., subcutaneous preadipocytes) are used, but this number can be increased as needed. Omental and mesenteric preadipocytes can be used in a similar manner. Cells are 10 thawed in PM and grown in tissue culture flasks under standard incubation conditions (5% carbon dioxide, 37° C.). Cells are passaged 1:2 upon 80-100% confluency. Cells are passaged up to ten times to produce enough cells for primary screening. • C. […] Cellular fluorescence of triglyceride droplets that have incorporated FA* is measured on a microplate reader. Efficacy of compounds on inhibiting FA* accumulation is determined by: % Efficacy=100−(sample fluorescence/negative control fluorescence×100). • H. Subsequent determination of compound toxicity on cells is measured by incubating cells (after the post-wash and FA* reading) with an aliquot of Alamar Blue (catalog # DAL-1100, BioSource International), a fluorescent dye that is reduced via cellular metabolism. After incubation of cells with the dye for up to four hours, fluorescence of the reduced compound is read. Alternatively, compound toxicity on cells can be determined in an experiment separate from the primary screen uptake/accumulation assay. Toxicity of compounds is determined by: % Toxicity =100−(sample fluorescence/negative control fluorescence×100).
Subsequent determination of compound toxicity is measured by incubating cells with one tenth of total cell volume of Alamar Blue (an indicator of cellular metabolism) for up to four hours before measuring fluorescence of the reduced compound. […]

[6] = system: human subcutaneous adipocytes; test: cells; conditions: Adipocyte, read-out: % Efficacy (inhibition of FA* accumulation)
Description: (§2) Cells are 10 thawed in PM and grown in tissue culture flasks under standard incubation conditions (5% carbon dioxide, 37° C.). Cells are passaged 1:2 upon 80-100% confluency. Cells are passaged up to ten times to produce enough cells for primary screening. • C. Cells are seeded and differentiated, as described in the previous section, in 384-well plates. • D. On day 6 of preadipocyte differentiation, the DM is first changed as described in the previous section. Cells are then incubated in a replicate manner (i.e., in triplicate) with compounds. […] Compounds are further diluted in a PBS or similarly buffered solution in the absence or presence of albumin to aid compound solubility. […] Positive control cells are treated with a compound or reagent known to modulate their ability to take up and/or accumulate fatty acids. […] The FA* currently used is 4,4-difluoro-5-methyl-4-bora-3a,4a-diaza-s-indacene-3-dodecanoic acid (C1-BODIPY® 500/510 C12, catalog # D-3823, Molecular Probes, Eugene, Oreg.). […] Cells are incubated for four hours at 5% carbon dioxide/37° C., then post-washed with FAB, preferably three times, to remove unincorporated FA*. Cellular fluorescence of triglyceride droplets that have incorporated FA* is measured on a microplate reader. Efficacy of compounds on inhibiting FA* accumulation is determined by: % Efficacy=100−(sample fluorescence/negative control fluorescence×100). • H. Subsequent determination of compound toxicity on cells is measured by incubating cells (after the post-wash and FA* reading) with an aliquot of Alamar Blue (catalog # DAL-1100, BioSource International), a fluorescent dye that is reduced via cellular metabolism. After incubation of cells with the dye for up to four hours, fluorescence of the reduced compound is read. Alternatively, compound toxicity on cells can be determined in an experiment separate from the primary screen uptake/accumulation assay. Toxicity of compounds is determined by: % Toxicity =100−(sample fluorescence/negative control fluorescence×100).
(§3) Primary screens for inhibition of fatty acid uptake are carried out using human subcutaneous preadipocytes in each of two assay formats. In a first assay format, cells are exposed to natural product and synthetic library components early in the differentiation process (days 1-3 following addition of differentiation medium). In a second assay format, cells are exposed to library components late in the process (days 7-10 following addition of differentiation medium), after at least 80% of cells have differentiated.
(§4) Subcutaneous human preadipocytes (passage 3-5) are seeded in plating medium at 3.0×10^4 cells/cm^2 in 96-well or 384-well plates, giving 100% confluence upon adherence. […]

[7] = system: human subcutaneous adipocytes; conditions: positive control
Description: as §2, §3, §4

[8] = Dex 10^−4 M in suboptimal differentiation medium
[9] = Dex 10^−7 M in suboptimal differentiation medium
[10] = Dex 10^−10 M in suboptimal differentiation medium

In the case of `CCCCCCC(C/C=C\CCCCCCCC(=O)O)OC(=O)c1c2ccccc2cc2ccccc12` (stereo not drawn) [12-AO, 12-(9-anthroyloxy) oleic acid], the “Uptake by 3T3-L1 cells, Day 9” value [1] was 10960 ± 1172 Raw Fluorescent Units and the “Uptake by 3T3-L1 cells, Day 0” value [1] was 3613 ± 160 Raw Fluorescent Units.
With `O=C(O)CCCCCCCCCCCCCCCOC(=O)c1c2ccccc2cc2ccccc12` [16-AP, 16-(9-anthroyloxy) palmitic acid] the “Uptake by 3T3-L1 cells, Day 9” value [1] was 8528 ± 20 Raw Fluorescent Units and the “Uptake by 3T3-L1 cells, Day 0” value [1] was 2944 ± 404 Raw Fluorescent Units.
With `CC1=[N+]2C(=Cc3ccc(CCCCCCCCCCCC(=O)O)n3[B-]2(F)F)C=C1` [BODIPY 500/510 C12, 4,4-difluoro-5-methyl-4-bora-3a,4a-diaza-s-indacene-3-dodecanoic acid] the “Uptake by 3T3-L1 cells, Day 9” value [1] was 56869 ± 2093 Raw Fluorescent Units, the “Uptake by 3T3-L1 cells, Day 0” value [1] was 404 ± 21 Raw Fluorescent Units and the “Fatty acid uptake, Fluor. Units” value ([1]; Day 0 in differentiation inducing medium) was 1166.67 Fluor. Units. For the same molecule, the “Fatty acid uptake, Fluor. Units” value ([1]; Day 2 in differentiation inducing medium) was 5006.75 Fluor. Units, the “Fatty acid uptake, Fluor. Units” value ([1]; Day 4 in differentiation inducing medium) was 10884.5 Fluor. Units and the “Fatty acid uptake, Fluor. Units” value ([1]; Day 6 in differentiation inducing medium) was 15441.8 Fluor. Units. For the same molecule, the “Fatty acid uptake, Fluor. Units” value ([1]; Day 10 in differentiation inducing medium) was 31645.8 Fluor. Units, the “Fatty acid uptake, Fluor. Units” value ([1]; Day 12 in differentiation inducing medium) was 37910 Fluor. Units and the “BODIPY uptake, Day 0” value ([2]; incubation 10 min) was 1290.263 rfu. For the same molecule, the “BODIPY uptake, Day 8” value ([2]; incubation 10 min) was 1198.325 rfu, the “BODIPY uptake, Day 0” value ([2]; incubation 30 min) was 510.3125 rfu and the “BODIPY uptake, Day 8” value ([2]; incubation 30 min) was 18518.67 rfu. For the same molecule, the “BODIPY uptake, Day 0” value ([2]; incubation 120 min) was 686.9375 rfu, the “BODIPY uptake, Day 8” value ([2]; incubation 120 min) was 46363 rfu and the “BODIPY uptake, Day 0” value ([2]; incubation 240 min) was 1104.125 rfu. The “BODIPY uptake, Day 8” value ([2]; incubation 240 min) was 49153.33 rfu and the “Fatty acid uptake, Fluor. Units” value ([2]; Day 8 in differentiation inducing medium, dye 120 minutes) was 18685 Fluor. Units.
`O=C([O-])CCCCCCCCCCCc1ccc2n1[B-](F)(F)[N+]1=C(c3cccs3)C=CC1=C2.[H+]` [BODIPY 558/568 C12, 4,4-difluoro-5-(2-thienyl) 1-4-bora-3a,4a-diaza-s-indacene-3-dodecanoic acid] was tested, and the “Uptake by 3T3-L1 cells, Day 9” value [1] was 3622 ± 641 Raw Fluorescent Units and the “Uptake by 3T3-L1 cells, Day 0” value [1] was 116 ± 9 Raw Fluorescent Units.
`C[C@@H]1C[C@H]2[C@@H]3CCC4=CC(=O)C=C[C@]4(C)[C@@]3(F)[C@@H](O)C[C@]2(C)[C@@]1(O)C(=O)CO` [Dex, dexamethasone] was tested, and the “Uptake Ratio” value [3, 8] was 5, the “Uptake Ratio” value [3, 9] was 79 and the “Uptake Ratio” value [3, 10] was 49. For the same molecule, the “% Diff.” value [4, 8] was 30%, the “% Diff.” value [4, 9] was 70% and the “% Diff.” value [4, 10] was 60%.
In the case of `N#CC(C#N)=NNc1ccc(OC(F)(F)F)cc1` [FCCP, carbonyl cyanide p-(trifluoromethoxy)-phenylhydrazone], the “% Toxicity” value ([5]; 0.3 μM) was −1%, the “% Toxicity” value ([5]; 1 μM) was −4% and the “% Toxicity” value ([5]; 3 μM) was 5%. It also gave an Emax at 0.3 µM [6] of 42%, an Emax at 1 µM [6] of 79% and an Emax at 3 µM [6] of 90%. The “FA* uptake and/or accumulation” value [7] was “inhibits FA* uptake and/or accumulation in a dose-responsive manner”.
